What follows are molecules tested on BaF3 V617F cells; UKE-1 (assay: Proliferation Assay (Cell Titer-Glo; Example 7)). Conditions: proliferation 72 hours, inhibit JAK2 activity, cell line (BaF3 V617F or UKE-1) not stated.
Type: cell-based
Procedure: BaF3 V617F cells are maintained and plated in RPMI with 10% FBS. Plating density for these cells is 1×10^5 cells/mL.
UKE-1 are maintained and plated in Iscove's DMEM containing 10% FBS, 10% equine serum, 1% penicillin/streptomycin and 1 uM hydrocortisone. Plating density for these cells is 0.4×10^6 cells/mL
The cells were resuspended in a corresponding medium at a required cell density (see above). 100μ of cell suspension was added to each well of a flat bottom 96 well white plate. The compound was serially diluted in DMSO from 5 mM in 3-fold dilutions, and then diluted 1:250 in the RPMI 1640 medium containing 5% FBS and pen/strep. 100 μL of resulting 2× compound solution was added per well in duplicate and the cells were allowed to proliferate for 72 hours at 37° C.
Proliferation was measured using Cell Titer-Glo. The substrate was thawed and allowed to come to room temperature. After removal of top 100 μL of medium from each well, 100 μL of the premixed Cell Titer-Glo reagent was added to each well. The plates were mixed on an orbital shaker for three minutes to induce lysis and incubated at ambient temperature for an additional five minutes to allow the signal to equilibrate. The Luminescence was read on the Wallac Plate Reader.
The results of the ability of the compounds of the invention to inhibit JAK2 activity, when tested in the above assay, are shown in the following Table XI wherein the level of activity (i.e., the IC50) for each compound is indicated in Table XI. The compound numbers in Table XI refers to the compounds disclosed herein as being prepared by the methods disclosed herein: […]

Molecule	IC50 [nM]
COc1cc(Nc2ncc(F)c(Nc3ccc(CNS(=O)(=O)C4CC4)cc3)n2)cc(C)c1OC [II-195, 5-Fluoro-N4-[4-(N-cyclopropylsulfonylamino)methylphenyl]-N2-[3,4-dimethoxy-5-methylphenyl]-2,4-pyrimidinediamine]	180
O=S(=O)(NCc1ccc(Nc2nc(Nc3ccc(N4CCN(C5CC6CCC5C6)CC4)c(F)c3)ncc2Cl)cc1)C1CC1 (centres unmarked) [II-79, N-(4-(2-(4-(4-(bicyclo[2.2.1]heptan-2-yl)piperazin-1-yl)-3-fluorophenylamino)-5-chloropyrimidin-4-ylamino)benzyl)cyclopropanesulfonamide]	3160
Cc1cnc(Nc2ccc(N3CCN(C4CC5CCC4C5)CC3)c(F)c2)nc1Nc1ccc(CNS(=O)(=O)C2CC2)cc1 (centres unmarked) [II-78, N-(4-(2-(4-(4-(bicyclo[2.2.1]heptan-2-yl)piperazin-1-yl)-3-fluorophenylamino)-5-methylpyrimidin-4-ylamino)benzyl)cyclopropanesulfonamide]	371
CCCN1CCN(c2ccc(Nc3ncc(Cl)c(Nc4ccc(CCNS(=O)(=O)C5CC5)cc4)n3)c(C(F)(F)F)c2)CC1 [II-54, 5-Chloro-N4[4-(N-cyclopropylsulfonylamino)ethylphenyl]-N2-[4-(4-propylpiperazino)-2-trifluoromethylphenyl]-2,4-pyrimidinediamine]	1970
CCS(=O)(=O)N1CCc2cc(Nc3nc(Nc4cc(C)c(OC)c(C)c4)ncc3F)ccc2C1 [VIII-10, N4-[(N-ethylsulfonyl)-1,2,3,4-tetrahydroisoquinolin-6-yl]-N2-(3,5-dimethyl-4-methoxy)phenyl-5-fluoro-2,4-pyrimidinediamine]	716
COc1c(C)cc(Nc2ncc(C)c(Nc3ccc(CNS(=O)(=O)N(C)C)cc3)n2)cc1C [II-99, 4-[(4-(Dimethylamino)sulfonylamino)methylphenyl]-N2-(3,5-dimethyl-4-methoxyphenyl)-5-methyl-2,4-pyrimidinediamine]	103
CCNS(=O)(=O)NCc1cccc(Nc2nc(Nc3ccc(N4CCN(C)CC4)cc3)ncc2F)c1 [II-138, N4-[3-((Ethylamino)sulfonylamino)methylphenyl]-5-fluoro-N2-[4-(4-methyl-1-piperazinyl)phenyl]-2,4-pyrimidinediamine]	726
Cc1cc(Nc2ncc(Cl)c(Nc3cccc(S(=O)(=O)NC(C)(C)C)c3)n2)ccc1N1C[C@@H]2C[C@H]1CN2C [I-22, 5-Chloro-N4-[(3-(1,1-dimethylethylamino)sulfonyl)phenyl]-N2-[3-methyl-4-[(1S,4S)-5-methyl-2,5-diazabicyclo[2.2.1]hept-2-yl]phenyl]-2,4-pyrimidinediamine]	549
Cc1cc(Nc2ncc(C)c(Nc3ccc(CNS(=O)(=O)C4CC4)cc3)n2)ccc1N1C[C@@H]2C[C@H]1CN2C [II-184, N4-[4-(N-Cyclopropylsulfonylamino)methylphenyl]-5-methyl-N2-[3-methyl-4-[(1S,4S)-5-methyl-2,5-diazabicyclo[2.2.1]hept-2-yl]phenyl]-2,4-pyrimidinediamine]	892
Cc1cnc(Nc2ccc(N3CCN(S(C)(=O)=O)CC3)cc2)nc1Nc1ccc(CNS(=O)(=O)C2CC2)cc1 [II-206]	1560
CCNS(=O)(=O)NCc1ccc(Nc2nc(Nc3ccc(N4CCN(C)CC4)cc3)ncc2Cl)cc1 [II-114, 5-Chloro-N4-[(4-(ethylamino)sulfonylamino)methylphenyl]-N2-[4-(4-methyl-1-piperazinyl)phenyl]-2,4-pyrimidinediamine]	180
Cc1cnc(Nc2ccc(N3CCN(C4CC5CCC4C5)CC3)cc2)nc1Nc1ccc(CNS(=O)(=O)C2CC2)cc1 (centres unmarked) [II-60, N-(4-(2-(4-(4-(bicyclo[2.2.1]heptan-2-yl)piperazin-1-yl)phenylamino)-5-methylpyrimidin-4-ylamino)benzyl)cyclopropanesulfonamide]	391
5-Chloro-N4-[4-[N-cyclopropylsulfonyl)-N′-(3-(4-morpholine)propion-1-yl)amino]methylphenyl]-N2-(3,5-dimethyl-4-methoxyphenyl)-2,4-pyrimidinediamine [II-141]	73.9
CCNS(=O)(=O)NCc1cccc(Nc2nc(Nc3ccc(N4CCN(C)CC4)cc3)ncc2Cl)c1 [II-131, 5-Chloro-N4-[(3-(ethylamino)sulfonylamino)methylphenyl]-N2-[4-(4-methyl-1-piperazinyl)phenyl]-2,4-pyrimidinediamine]	151
CS(=O)(=O)N1CCN(c2ccc(Nc3ncc(Cl)c(Nc4ccc(CCNS(=O)(=O)C5CC5)cc4)n3)c(C(F)(F)F)c2)CC1 [II-55, 5-Chloro-N4[4-(N-cyclopropylsulfonylamino)ethylphenyl]-N2-[4-(4-methylsulfonylpiperazino)-2-trifluoromethylphenyl]-2,4-pyrimidinediamine]	8880
CCNS(=O)(=O)NCc1cccc(Nc2nc(Nc3ccc(N4CCN(C)CC4)c(C)c3)ncc2C)c1 [II-136, N4-[3-((Ethylamino)sulfonylamino)methylphenyl]-5-methyl-N2-[3-methyl-4-(4-methyl-1-piperazinyl)phenyl]-2,4-pyrimidinediamine]	2140

Continued by falling IC50, values first:

IC50 [nM]	Molecule
848	Cc1cnc(Nc2cncc(C)c2N2CCN(C)CC2)nc1Nc1ccc(CNS(=O)(=O)C2CC2)cc1 [II-224, 5-Methyl-N4-[4-(N-cyclopropylsulfonylamino)methylphenyl]-N2-[5-methyl-4-(N-methylpiperizin-4-yl)pyridin-3-yl]-2,4-pyrimidinediamine]
633	Cc1cc(CNS(=O)(=O)NC2CC2)ccc1Nc1nc(Nc2ccc(N3CCN(C)CC3)cc2)ncc1Cl [II-180, 5-Chloro-N4-[2-methyl-4-((N-cyclopropylamino)sulfonylamino)methylphenyl]-N2-[4-(4-methyl-1-piperazinyl)phenyl]-2,4-pyrimidinediamine]
592	COc1cc(C)c(Nc2ncc(Cl)c(Nc3ccc(CCNS(=O)(=O)C4CC4)cc3)n2)c(C)c1 [II-46, 5-Chloro-N4[4-(N-cyclopropylsulfonylamino)ethylphenyl]-N2-[4-(2,6-dimethyl-methoxy)phenyl]-2,4-pyrimidinediamine]
371	5-Chloro-N4-[3,4-dihydro-1,1-dioxide-2H-1,2-benzothiazin-7-yl]-N2-[4-(N-methylpiperizin-4-yl)phenyl]-2,4-pyrimidinediamine [VII-2]
293	CN1CCC(c2ccc(Nc3ncc(Cl)c(Nc4ccc(CNS(=O)(=O)C5CC5)cc4)n3)cc2)CC1 [II-187, 5-Chloro-N4-[4-(N-cyclopropylsulfonylaminomethyl)phenyl]-N2-[4-(N-methylpiperidin-4-yl)phenyl]-2,4-pyrimidinediamine]
229	CCNS(=O)(=O)NCc1ccc(Nc2nc(Nc3cc(C)c(OC)c(Cl)c3)ncc2C)cc1 [II-118, N2-(3-Chloro-4-methoxy-5-methylphenyl)-N4-[(4-(ethylamino)sulfonylamino)methylphenyl]-5-methyl-2,4-pyrimidinediamine]
127	CCNS(=O)(=O)NCc1cccc(Nc2nc(Nc3cc(C)c(OC)c(C)c3)ncc2Cl)c1 [II-129, 5-Chloro-N2-(3,5-dimethyl-4-methoxyphenyl)-N4-[(3-(ethylamino)sulfonylamino)methylphenyl]-2,4-pyrimidinediamine]

From patent US8304422B2, “Compositions and methods for inhibition of the JAK pathway” (Rigel Pharmaceuticals, Inc., priority 2007, dated 2012)
